Results on 1 molecule are retold here after US11759436B2, “Dosage regimen of an S1P receptor modulator” (Novartis AG, priority 2009, dated 2023).

Series [1] deals with patients with Relapsing-remitting Multiple Sclerosis. As to the kind of experiment: Study of oral fingolimod 0.5 mg/day or 1.25 mg/day vs interferon beta1-a in patients with RRMS. It counts as in vivo, human. The method, then:
The patients are seen clinically every month for 3 months and every 3 months thereafter. The Expanded Disability Status Scale (EDSS) is performed every 3 months, the MS Functional Composite (MSFC) every 6 months, and MRI annually. Monitoring by ophthalmic examination, dermatologic examination, pulmonary function tests, chest X-ray and/or CT, Holter monitoring, and echocardiography are performed. Participants who completed 1 year on treatment are offered an optional extension phase.

Series [2] deals with Cardiac Rate and Rhythm in Healthy Patients. Conditions: administration of 1.25 mg of FTY720; healthy subjects; cited from earlier work.
In series [3] the test system is Patients with moderate asthma. As to the kind of experiment: Study of FTY720 vs placebo in patients with moderate asthma (pulmonary function tests, safety). The series is classed as in vivo, human. The note with it: daily dosage of 0.5 mg, 10 day treatment. The method, then: Patients with moderate asthma are divided into 3 dosing cohorts of 12 patients each. In each cohort, the 12 patients are randomized to FTY720 (0.5 mg, 1.25 mg, and 2.5 mg in cohorts 1, 2, and 3 respectively) or placebo in a 3:1 ratio resulting in 9 patients treated with FTY720 at each dose level and 9 patients treated with placebo. The study consists of a screening period of between 12 and 26 days, baseline and a 10 day treatment period followed by a study completion evaluation (performed 1-7 days after the last dose). Two screening visits are performed, the initial Screening visit and a second visit at Day −7 (+/−1 day). […] Short-acting […] agonist use prior to treatment with study medication is also recorded in this 14 day period. […] PFT profiling is assessed at 7 time points during the visit and routine baseline evaluations are performed. On Day 1, patients are randomized in a 3:1 ratio to FTY720 or placebo and PFT profiling is assessed at 8 time points (namely pre-dose, then at 1, 2, 3, 4, 5, 6 and 12 hours post-dose). PFT assessments are also performed on Days 2, 3, 7 (all single time points assessed at approximately the same clock time as the 6 hours post-dose PFT on Day 1) and Day 10 (7 time points, namely pre-dose and then at 1, 2, 3, 4, 5 and 6 hours post-dose). […] The magnitude of the bronchoconstriction is primarily assessed by the baseline-adjusted FEV1 AUC0-6 h on Day 1. […]

The mark [4] stands for this setting: both fingolimod groups (0.5 and 1.25 mg/day), month 12.

The structures appear in SMILES notation.

With `CCCCCCCCc1ccc(CCC(N)(CO)CO)cc1.Cl` [Fingolimod, 2-amino-2-[2-(4-octylphenyl)ethyl]propane-1,3-diol], in series [1] (RRMS patients, fingolimod, dose not stated), the “proportion of relapse-free patients” value amounted to 83%. Moreover, the “reduction in relapses vs interferon beta1-a” value in series [1] (RRMS patients, higher dose (1.25 mg/day)) was found to be 38%. In addition, in series [1] (RRMS patients, lower dose (0.5 mg/day)), the “reduction in relapses vs interferon beta1-a” value turned out to be 52%. The Annualized relapse rate in series [1] (RRMS patients, oral fingolimod 0.5 mg/day) is given as 0.16. The Annualized relapse rate in series [1] (RRMS patients, oral fingolimod 1.25 mg/day) was found to be 0.20. Moreover, in series [1] (setting [4]), the “MRI lesion activity: number of gadolinium-enhancing T1 lesions” value is “reduction” and the “MRI lesion activity: number of new or newly enlarging T2 lesions” value is “reduction”. In addition, in series [1] (fingolimod 0.5 mg/d), the Basal-cell carcinoma is given as 3 (0.7) n (%), the Breast cancer was 2 (0.5) n (%), the Malignant melanoma is reported as 3 (0.7) n (%) and the Squamous-cell carcinoma is 0 n (%). In addition, in series [1] (fingolimod 1.25 mg/day), the Basal-cell carcinoma is 2 (0.5) n (%), the Breast cancer is 2 (0.5) n (%), the Malignant melanoma is recorded as 0 n (%) and the Squamous-cell carcinoma is 0 n (%). Moreover, in series [2], the “decrease in heart rate” value was “approximately 8 beets/min”. Further, in series [3], the safety and tolerability entry was “safe and well tolerated”.
